Patent US11617748B2, “Meclozine derivatives and diclazuril derivatives for use in the prevention and/or the treatment of disorders associated to the inflammation induced by P. acnes” (priority 2016, dated 2023)
pIC50: −log10 of the molar value.

Legend:
Format in all cases: cell-based, human
[1] = tested on: p38; assay: Western blot of p-p38/p38 in P. acnes-stimulated HaCaT cells; conditions: 25 μM, 24 h pre-treatment
Experimental: (§1) Western Blot analysis. Whole cell protein extracts (25 μg) were separated by electrophoresis (LDS-PAGE) under denaturing conditions with NuPAGE Novex 4-12% Bis-Tris gel (1 mm, 12 wells, Invitrogen, UK) and proteins were transferred onto nitrocellulose membranes and saturated in 20 ml of saturation buffer consisting of TBS 1× (Tris Buffered Saline) containing 200 mM Tris, 1.4 M NaCl (pH 7.6), 5% no fat milk, 0.1% Tween 20 for 1 h. […] After washing to remove unbound antibodies, bound primary antibodies were detected by incubation for 1 h using secondary antibody against rabbit- and mouse IgG (Santa Cruz Biotechnology, SC-2357, 1:5000 and SC-2005, 1:5000, respectively). Unbound material was removed by washing and peroxidase activity was detected in a chemiluminescence assay (WesternBright ECL, Advansta, Menlo Park, USA). […]

[2] = tested on: Akt; assay: Western blot of p-Akt/Akt in P. acnes-stimulated HaCaT cells; conditions: 25 μM, 24 h pre-treatment
Experimental: as §1

[3] = tested on: IκB; assay: Western blot of IκB / p-IκB in P. acnes-stimulated HaCaT cells; conditions: 24 h pre-treatment; for degradation of p-IκB: 25 μM, P. acnes 30 min-24 h
Experimental: Western Blot analysis. Whole cell protein extracts (25 μg) were separated by electrophoresis (LDS-PAGE) under denaturing conditions with NuPAGE Novex 4-12% Bis-Tris gel (1 mm, 12 wells, Invitrogen, UK) and proteins were transferred onto nitrocellulose membranes and saturated in 20 ml of saturation buffer consisting of TBS 1× (Tris Buffered Saline) containing 200 mM Tris, 1.4 M NaCl (pH 7.6), 5% no fat milk, 0.1% Tween 20 for 1 h. After washing three times for 15 min with 15 ml of TBS/T buffer [1×TBS, 0.1% Tween-20], membranes were incubated overnight with gentle mixing at 4° C. with 10 ml of rabbit polyclonal primary antibodies against human ICAM-1 (SC-7891, 1:500), PPARα (SC-398394, 1:250), PPARβ (SC-74517, 1:200), PPARγ (SC-7196, 1:500), IκB (SC-371, 1:500), p-IκB (SC-7977, 1:500), Cox-2 (SC-7951, 1:250), p-mTOR (CS, Ref 2974, 1:1000), mTOR (CS, Ref 2972, 1:1000), p-p38 (SC-17852, 1:500), p38 (SC-535, 1:250), ERK (SC-94, 1:500), JNK (SC-571, 1:500), and mouse monoclonal primary antibodies against human p-PI3 kinase (CS, Ref 4228, 1:250), PI3 kinase (CS, Ref 4257, 1:250), p-Akt1/2/3 (SC-81433, 1:500), p-ERK (SC-7383, 1:500), p-JNK (SC-6254, 1:500), -actin used to control loading, (SC-47778, 1:1000) diluted in TBS/T supplemented with 5% BSA (antibodies were purchased from Santa Cruz Biotechnology, Inc., Santa Cruz, Calif., USA abbreviated SC; and from Cell Signaling Technology, Inc. Leiden, The Netherlands abbreviated CS above). After washing to remove unbound antibodies, bound primary antibodies were detected by incubation for 1 h using secondary antibody against rabbit- and mouse IgG (Santa Cruz Biotechnology, SC-2357, 1:5000 and SC-2005, 1:5000, respectively). Unbound material was removed by washing and peroxidase activity was detected in a chemiluminescence assay (WesternBright ECL, Advansta, Menlo Park, USA).
The molecular basis for the inhibition of IL-8 production by diclazuril and meclozine has been investigated, in particular it has been evaluated if they interfered with signaling pathways known to be activated when keratinocytes are stimulated with P. acnes. […]

[4] = tested on: Cox-2; assay: Western blot of Cox-2 expression in P. acnes-stimulated HaCaT cells; conditions: 25 μM, 24 h pre-treatment
Experimental: as §1

[5] = tested on: JNK; assay: Western blot of p-JNK/JNK in P. acnes-stimulated HaCaT cells; conditions: 25 μM, 24 h pre-treatment
Experimental: as §1

[6] = tested on: PPARβ; assay: Western blot of PPARβ expression in P. acnes-stimulated HaCaT cells; conditions: 25 μM, 24 h pre-treatment
Experimental: as §1

[7] = tested on: PI3K; assay: Western blot of p-PI3K/PI3K in P. acnes-stimulated HaCaT cells; conditions: 25 μM, 24 h pre-treatment
Experimental: as §1

[8] = tested on: HaCaT cells; assay: MTT cell viability assay on HaCaT keratinocytes
Experimental: Cell culture, pretreatment and stimulation. The immortalized human keratinocyte cell line HaCaT, fibroblast MRC5 were grown in Dulbecco's modified Eagle's medium-Glutamax-I (DMEM) with 1 mM sodium pyruvate. […] DMEM and RPMI were supplemented with 0.1% and 10% heat-inactivated fetal calf serum (Invitrogen), and an antibiotic/antimycotic solution (10 U/ml Pencillin, 10 μg/ml Streptomycin, 0.25 μg/ml Amphoterin) at 37° C. in humidified atmosphere containing 5% CO2 as described (Life Technologie). Primary human keratinocytes (NHDK) and fibroblast (HDF) were grown in the KGM-Gold and in FGM-2 Bullet Kit, respectively, as described by the manufacturer (Lonza). The immortalized cell lines were routinely tested to assess the absence of Mycoplasma infection. Cells, cultivated in 6- or 96-well polystyrene plates, were pretreated with appropriate molecule solution for 1 to 48 h at 37° C. in the dark at the appropriate concentration. Then, for stimulation, cells were incubated for 15 min to 24 h with the P. acnes suspension adjusted at the appropriate concentration at 37° C. in 5% CO2. For experiences using an in vitro model of psoriasis, the primary human keratinocytes (NHDK) were grown in culture medium for 24 hours.
Cell viability assays. Viability of cells was estimated by using the MTT assay where cells were incubated with a 0.2% MTT solution in cell culture medium for 4 h at 37° C. The MTT solution was then discarded and DMSO added to solubilize the MTT-formazan cristals produced in living cells. After thorough mixing, the absorbance was measured at 540 nm.

[9] = tested on: IL-1β production; assay: PGN- and LTA-induced IL-1β production in ThP-1 monocytes (ELISA); conditions: ThP-1, 6.25 μM, 24 h pre-treatment, PGN or LTA 5-20 μg/ml
Experimental: (§2) ELISA. Human IL-1β, IL-8, hBD-2 and TNF-α protein concentration were measured in the supernatants of stimulated cells using various ELISA Sets (all from Ready-Set-Go from eBioscience, except hBD-2 measurements: Human DEFB4A/BD-2 ELISA Kit from LSBio) according to the manufacturer's instructions. We used serial dilutions of recombinant human IL-1β, IL-8, hBD-2 and TNF-α for standard curve. The optical density was determined at 450 nm at a wavelength correction of 540 nm.

[10] = tested on: IL-8 production; assay: IL-8 production by M5-stimulated NHDK, in vitro psoriasis-like model (ELISA); conditions: NHDK + M5, 48 h
Experimental: Cell culture, pretreatment and stimulation.
as §2

Structure (SMILES) | phosphorylation of p38 induced by P. acnes [1] | phosphorylation of Akt induced by P. acnes [2] | degradation of p-IκB [3] | expression of Cox-2 [4] | phosphorylation of JNK induced by P. acnes [5] | expression of PPARβ [6] | phosphorylation of PI3K induced by P. acnes [7] | impact on cell viability (MTT), 48 h pre-treatment [8] | decrease of IL-1β production (average) [9] [%] | effect on IL-8 production, in words ([10]; 0.39 to 12.5 μM) | degradation of IκB ([3]; 10 μM, P. acnes 15-180 min) | pIC50 ([10]; Homo sapiens, read-out: IC50 of decrease of IL-8 production) | decrease of IL-8 production ([10]; at 3,125 μM) [%]
Cc1cccc(CN2CCN(C(c3ccccc3)c3ccc(Cl)cc3)CC2)c1 (stereo not shown) [meclozine, Meclozine] | prevented the phosphorylation | prevented the phosphorylation | did not alter the degradation of p-IκB | strongly decrease | did not cause any changed | strongly decrease | prevented the phosphorylation | without any major impact on cell viability | 36 | no effect |  |  | 
N#CC(c1ccc(Cl)cc1)c1c(Cl)cc(-n2ncc(=O)[nH]c2=O)cc1Cl (stereo not shown) [diclazuril, Diclazuril] | prevented the phosphorylation | prevented the phosphorylation | did not alter the degradation of p-IκB | decrease | did not cause any changed | no change | prevented the phosphorylation | without any major impact on cell viability | 64 |  | did not prevented the degradation of IκB | 5.52 to 5.70 | 66
